Measurements as given in PMC9293083 (Chemistry (Weinheim an Der Bergstrasse, Germany), 2021).

Experiments:
A549 (lung carcinoma) [1] = system: A549 (lung carcinoma)
A549 cells = type: cell-based, human
[2] = system: lung mouse embryonic fibroblasts (LMEFs); type: cell-based; conditions: 10 μM, 22 h
HeLa (cervix carcinoma) = conditions: read-out: IC50 HeLa; cited from earlier work
A549 (lung carcinoma) [3] = conditions: read-out: IC50 A549; cited from earlier work
pBR322 plasmid DNA = type: binding
tubulin = type: cell-based, human

For `CN(C)c1ccc(-c2nc3ccccc3s2)cc1` [Me2N‐pbtH, 2‐(4‐dimethylaminophenyl)benzothiazole], the “cytotoxic effects against A549 cells” value (A549 (lung carcinoma) [1]) was “did not show cytotoxic effects”, the “cellular internalization (intracellular green fluorescence)” value (A549 cells) was “successful internalization” and the “colocalization with Golgi apparatus marker BODIPY TR C5 ceramide” value (A549 cells) was “most of the signal colocalized with the Golgi apparatus marker”. For the same compound, the “time to bright green fluorescence (internalization)” value (A549 cells) was 2 to 5 min, the “accumulation in endosomal/lysosomal compartments (LysoTracker)” value [2] was “minor accumulation in the endosomal/lysosomal compartments” and the “accumulation in mitochondria (MitoTracker)” value [2] was “lack of accumulation in mitochondria”.
In the case of `N.N.[Cl][Pt][Cl]` [cisplatin, reference compound], the IC50 (HeLa (cervix carcinoma)) is given as 13.6 ± 0.99 µM, the IC50 (A549 (lung carcinoma) [3]) is given as 6.45 ± 0.47 µM and the “electrophoretic mobility of plasmid forms” value (pBR322 plasmid DNA) is given as “electrophoretic shift”.
With `COC(=O)Nc1nc2ccc(C(=O)c3cccs3)cc2[nH]1` [nocodazole, reference compound] the “tubulin depolymerization / microtubule disassembly” value (tubulin) was “notable microtubule disassembly”.
